The values below come from patent US20110028552A1, “MEXILETINE AMINO ACID AND PEPTIDE PRODRUGS AND USES THEREOF” (priority 2009, published 2011).

For data set [1] the following is noted: mexiletine from prodrug vs parent. Here is the method: Blood samples were taken at various times after administration and submitted to analysis for the prodrug and parent drug using a validated LC-MS-MS assay. Pharmacokinetic parameters derived from the plasma analytical were determined using Win Nonlin.
Data set [2] is described as follows: Systemic availability of mexiletine in the dog after oral prodrug dosing. It is filed as in vivo, Dog (Beagle). The conditions noted are these: 1 mg/kg mexiletine free base. Here is the method: Test substances (i.e., mexiletine, and various mexiletine amino acid prodrugs) were administered by oral gavage to groups of five dogs. The characteristics of the test animals are set out in Table 6.
Blood samples were taken at various times after administration and submitted to analysis for parent drug using a validated LC-MS-MS assay. Pharmacokinetic parameters derived from the plasma analytical were determined using Win Nonlin.

Data set [3] is described as follows: Systemic availability of mexiletine in the cynomolgus monkey after oral prodrug dosing. It is filed as in vivo. The conditions noted are these: 1 mg/kg mexiletine free base.
Data set [4] has as its system rabbit stomach smooth muscle. The data set can be described thus: EFS-stimulated contractions of isolated rabbit stomach smooth muscle. The conditions noted are these: rabbit stomach antrum strips; EFS 14 Hz.
In another data set the target is T1, hNav 1.1 channel (Homo sapiens, UniProt P35498).
T1 construct: expressed in transfected cells
Nature of the data set: Block of cloned hNav1.1 channel in CHO cells (IonWorks Quattro). The conditions noted are these: for IC50 fold above the parent: relative to mexiletine. The format is cell-based. Here is the method: Data was corrected for leak current.
The tonic block was calculated as:
% Block (Tonic)=(1−ITP1,TA/ITP1,Control)×100%,
where ITP1, Control and ITP1, TA are the inward peak Na^+ currents elicited by the TP1 in control and in the presence of a test article, respectively. 10 Hz Block—the frequency-dependent block at stimulation frequency 10 Hz was calculated as: […]
where ITP11, Control and ITP11, TA are the inward peak Na^+ currents elicited by the TP11 in control and in the presence of a test article, respectively. The inactivation state block is defined as the decrease in test pulse (TP12) current amplitude due to the conditioning depolarizing pulse (TP11). The inactivation state block was calculated as:
% Block (inactivation state)=(1−(ITP12,TA/ITP12,TA)×100%,
where ITP12, Control and ITP12, TA are the inward peak Na^+ currents elicited by the TP12 in control and in the presence of a test article, respectively. Concentration-response data for the blocks were fit to an equation of the following form: […]
(In general: The patch-clamp technique gives a direct electrical read-out from membranes.)

The conditions of data set [5]: cited from earlier work.
For data set [6] the following is noted: cited from earlier work. The source holds these as a separate data set.
The test system of another data set is sodium channel. The conditions noted are these: De Bellis et al. (2006); cited from earlier work.
Where [7] appears, read: hNav1.1 in CHO cells, frequency-dependent block at 10 Hz (TP11), read-out: IC50 10 Hz block.
Setting [8] is: hNav1.1 in CHO cells, inactivation state block (TP12), read-out: IC50 Inactivated state.
Setting [9] is: hNav1.1 in CHO cells, tonic block (TP1), read-out: IC50 Tonic block.
Where [10] appears, read: hNav1.1, 10 Hz block, rounded values, read-out: IC50 values (with the 10 Hz block).

pIC50: −log10 of the molar value. Values joined by “and” are separate entries in the source; they are usually repeats but may differ in a detail not shown here. Identical values can stand only once. Counter-ions that a name gives are not always drawn. Like-named read-outs stand apart in the source and are kept apart here. Bounds are passed on as bounds.

Regarding `Cc1cccc(C)c1OCC(C)NC(=O)CN.O=C(O)C(F)(F)F` (racemic) [(rac)-mexiletine-glycine trifluoroacetate], the Frel in [1] (individual ferrets, oral 10 mg free base equivalents/kg) was 67% and 107% and 103% and 77% and 108% and 101%. The “Frel, Mean” value in data set [1] (mean of six ferrets) is recorded as 94%. Moreover, the “F (abs)” value in [2] was 57 ± 6%; in data set [3], 41.5 ± 4.11%. In the data set on ferret (% of that seen after mexiletine itself), the “duration of vomiting relative to mexiletine” value is “less than 30%”. In addition, the “average number of vomits relative to parent drug” value in the data set with ferret (% of those observed after dosing the parent drug) is listed as “less than 30%”. The “calculated ED50, attenuation of EFS induced contractions” value (from here on “calculated ED50, attenuation”) in data set [4] is 9.16 µM. The pIC50 at hNav 1.1 channel (setting [7]) was 3.97; on hNav 1.1 channel (setting [8]) it was 4.67; at hNav 1.1 channel (setting [9]), 3.40.
Turning to `Cc1cccc(C)c1OCC(C)N.Cl` (racemic) [Mexiletine hydrochloride, (rac)-1-(2,6-dimethylphenoxy)-2-propanamine hydrochloride, reference compound], the “calculated ED50, attenuation” value in data set [4] is 2.17 µM. For the same molecule, the pIC50 on hNav 1.1 channel (setting [10]) is 4.42; at hNav 1.1 channel (setting [7]), 4.42; at hNav 1.1 channel (setting [8]), 5.04; at hNav 1.1 channel (setting [9]), 3.94.
For `Cc1cccc(C)c1OCC(C)NC(=O)[C@@H](N)CCCCN` (mixture of isomers) [Mexiletine lysine amide, 2,6-diamino-hexanoic acid [2-(2,6-dimethylphenoxy)-1-methylethyl]-amide ditrifluoroacetate], the “calculated ED50, attenuation” value in data set [4] was 21.83 µM.
For the molecule `Cc1cccc(C)c1OCC(C)NC(=O)[C@@H](N)CC[S+](C)C.Cl.[Cl-]` (stereo partly drawn) [(S)-2-Amino-N-[2-(2,6-dimethyl-phenoxy)-1-methyl-ethyl]-4-(dimethyl-λ^4-sulfanyl chloride)-butyramide hydrochloride], on hNav 1.1 channel (hNav1.1), the “IC50 fold above the parent” value is around 20 fold. Besides, the pIC50 on hNav 1.1 channel (setting [7]), on hNav 1.1 channel (setting [8]) and on hNav 1.1 channel (setting [9]) was below 3.00 in each case.
As to `CNCC[C@H](Oc1cccc2ccccc12)c1cccs1` [Duloxetine], the “treated patients with nausea” value in data set [5] (FDA labeling) is on record as 20-40%.
On to `Cc1cccc(C)c1OCC(C)NC(=O)C(C)CN` (stereo not drawn) [Mexiletine 2-methyl β alanine amide], for which the negative logarithm of the IC50 (pIC50) was 4.29 on hNav 1.1 channel (setting [7]), 4.79 at hNav 1.1 channel (setting [8]) and 3.86 at hNav 1.1 channel (setting [9]).
Take `Cc1cccc(C)c1OCC(C)NC(=O)C1CC(O)CN1` (centres unmarked) [Mexiletine 4-hydroxyproline amide]: the pIC50 at hNav 1.1 channel (setting [7]) is 4.43; at hNav 1.1 channel (setting [8]), 4.81; on hNav 1.1 channel (setting [9]), 3.83.
Taken in the same sequence, the figures for `Cc1cccc(C)c1OCC(C)NC(=O)C(N)CCCNC(N)=O` (centres unmarked) [Mexiletine citrulline amide] were 3.45, 3.74 and 3.31.
Take `Cc1cccc(C)c1OCC(C)NC(=O)C(N)C1CC1` (centres unmarked) [Mexiletine cyclopropyl glycine amide]: the negative logarithm of the IC50 (pIC50) on hNav 1.1 channel (setting [7]) is 3.77; at hNav 1.1 channel (setting [8]) it was 4.37; on hNav 1.1 channel (setting [9]), 3.32.
Turning to `Cc1cccc(C)c1OCC(C)NC(=O)CN(C)C` (centres unmarked) [Mexiletine dimethylglycine amide], the pIC50 on hNav 1.1 channel (setting [7]) is 4.99; on hNav 1.1 channel (setting [8]), 5.49; on hNav 1.1 channel (setting [9]) it was 4.52.
With `Cc1cccc(C)c1OCC(C)NC(=O)[C@@H](N)CCC(=O)O.Cl` (stereo partly drawn) [Mexiletine glutamic acid amide, (S)-4-Amino-4-[2-(2,6-dimethyl-phenoxy)-1-methyl-ethylcarbamoyl]-butyric acid hydrochloride], the negative logarithm of the IC50 (pIC50) at hNav 1.1 channel (setting [10]), on hNav 1.1 channel (setting [7]), on hNav 1.1 channel (setting [8]) and on hNav 1.1 channel (setting [9]) was below 3.00 throughout. In addition, the “IC50 fold above the parent” value at hNav 1.1 channel (hNav1.1) is around 20 fold.
With `Cc1cccc(C)c1OCC(C)NC(=O)[C@@H](N)CCC(N)=O` (stereo partly drawn) [Mexiletine glutamine amide, (S)-2-Amino-pentanedioic acid 5-amide 1-{[2-(2,6-dimethyl-phenoxy)-1-methyl-ethyl]-amide}hydrochloride], the pIC50 on hNav 1.1 channel (setting [7]) is 3.86; at hNav 1.1 channel (setting [8]), 4.17; at hNav 1.1 channel (setting [9]) it was 3.12.
For `Cc1cccc(C)c1OCC(C)NC(=O)C(N)Cc1c[nH]cn1` (centres unmarked) [Mexiletine histidine amide], the pIC50 at hNav 1.1 channel (setting [7]) is 4.38; on hNav 1.1 channel (setting [8]), 4.67; on hNav 1.1 channel (setting [9]), 4.10.
In the case of `Cc1cccc(C)c1OCC(C)NC(=O)[C@@H](N)CCCCNC(=N)N` (stereo partly drawn) [Mexiletine homoarginine amide, (S)-2-Amino-6-guanidino-hexanoic acid [2-(2,6-dimethyl-phenoxy)-1-methyl-ethyl]-amide dihydrochloride], the pIC50 on hNav 1.1 channel (setting [10]) is 3.20; at hNav 1.1 channel (setting [7]), 3.21; at hNav 1.1 channel (setting [8]) it was 3.59; on hNav 1.1 channel (setting [9]), 3.13. Also, on hNav 1.1 channel (hNav1.1), the “IC50 fold above the parent” value is around 20 fold.
Regarding `Cc1cccc(C)c1OCC(C)NC(=O)c1ccncc1` (centres unmarked) [Mexiletine isonicotinic acid amide], the pIC50 was 3.36 on hNav 1.1 channel (setting [7]), 3.89 at hNav 1.1 channel (setting [8]) and 3.09 at hNav 1.1 channel (setting [9]).
Take `Cc1cccc(C)c1OCC(C)NC(=O)c1cccnc1` (centres unmarked) [Mexiletine nicotinic acid amide]: the negative-log IC50 (pIC50) on hNav 1.1 channel (setting [7]) is 3.46; at hNav 1.1 channel (setting [8]), 4.21; at hNav 1.1 channel (setting [9]), 3.31.
On to `Cc1cccc(C)c1OCC(C)NC(=O)[C@@H](N)Cc1ccccc1.Cl` (some centres unmarked) [Mexiletine phenylalanine amide], for which the “F (abs)” value in data set [2] was found to be 38 ± 6%.
As to `Cc1cccc(C)c1OCC(C)NC(=O)C1CCCCN1` (centres unmarked) [Mexiletine pipecolic acid amide], the values for the pIC50 on hNav 1.1 channel (setting [7]), on hNav 1.1 channel (setting [8]) and at hNav 1.1 channel (setting [9]) were 5.22, 5.57 and 4.59, respectively.
Regarding `CNCC(=O)NC(C)COc1c(C)cccc1C` (centres unmarked) [Mexiletine sarcosine amide], the figures for the pIC50 at hNav 1.1 channel (setting [7]), on hNav 1.1 channel (setting [8]) and at hNav 1.1 channel (setting [9]) were 4.41, 5.20 and 3.73, respectively.
Consider `Cc1cccc(C)c1OCC(C)NC(=O)C(N)CO` (centres unmarked) [Mexiletine serine amide], for which the figures for the pIC50 at hNav 1.1 channel (setting [7]), on hNav 1.1 channel (setting [8]) and on hNav 1.1 channel (setting [9]) were 4.30, 4.85 and 3.62, respectively.
The corresponding values for `Cc1cccc(C)c1OCC(C)NC(=O)C(N)C(C)O` (centres unmarked) [Mexiletine threonine amide] are 4.38, 4.94 and 3.63.
As for `Cc1cccc(C)c1OCC(C)NC(=O)[C@@H](N)C(C)C.Cl` (some centres unmarked) [Mexiletine valine amide], in data set [2], the “F (abs)” value is on record as 35 ± 6%.
Same read-out and setting: the result for `Cc1cccc(C)c1OCC(C)NC(=O)[C@@H](NC(=O)[C@@H](N)C(C)C)C(C)C.Cl` (some centres unmarked) [Mexiletine valine-valine amide] reads 50 ± 9%.
In the case of `Cc1cccc(C)c1OCC(C)NC(=O)CCN` (stereo not drawn) [Mexiletine β alanine amide], the pIC50 is 4.23 at hNav 1.1 channel (setting [7]), 4.63 at hNav 1.1 channel (setting [8]) and 3.61 on hNav 1.1 channel (setting [9]).
The corresponding values for `Cc1cccc(C)c1OCC(C)NC(=O)C(N)CN` (stereo not drawn) [Mexiletine β amino alanine amide] are 3.75, 4.21 and 3.32.
As to `NCC1(CC(=O)O)CCCCC1` [gabapentin], the Bioavailability result in data set [6] (900 mg/day gabapentin) is listed as “approximately 60%”; in [6] (1200 mg/day gabapentin) it was around 47%; in data set [6] (2400 mg/day gabapentin) it was around 34%; in data set [6] (3600 mg/day gabapentin) it was around 33%; in data set [6] (4800 mg/day gabapentin) it was around 27%.
Turning to `CC(C)C[C@H](CN)CC(=O)O` [pregabalin], the “patients with dizziness and somnolence” value in data set [5] (patients treated at the higher doses (FDA labeling)) is on record as “up to 30%”.
As to Para-hydroxymexiletine, in the data set with sodium channel, the “sodium channel inhibitory activity retained vs parent molecule” value is “around 25%”.

By pIC50 is commonly meant the negative decadic logarithm of the IC50, by convention in mol/L.
